US20120010196A1, “METHODS OF TREATING NEURODEGENERATIVE DISORDERS AND DISEASES” (priority 2010, published 2012)
Counter-ions that a name gives are not always drawn.

Legend:
[1] = tested on: hippocampal neurons cultured from wild-type mice; assay: Quantification of growth cone collapse in cultured neurons from wild-type mice (U18666A-induced); type: cell-based; conditions: for growth cone collapse (share of neurons): 1 μM U18666A for 18 h
Description: (§1) Neuronal cultures. Cortical and hippocampal neurons were prepared from npc1+/+ and npc1−/− embryos at embryonic day 18 (E18); time-pregnant wild-type BALB/c or npc1+/− mice were obtained either from Charles River Laboratories (San Diego, Calif.) or from our breeding colony respectively. Neurons were cultured in NeuroBasal (GIBCO, Carlsbad, Calif.) with 10% bovine serum albumin (BSA), 2% B27, and 1% glutamine for three to four days before being used.
(§2) Treatment. For primary cultured neurons, chemicals (U18666A and inhibitors of various enzymes) were first dissolved in 10% DMSO before being diluted in cultured medium; final DMSO concentration was lower than 0.01%. For in vivo treatment, hydroxyfasudil monohydrochloride (Sigma) was dissolved in double-distilled H2O and injected subcutaneously at 10 mg/kg, twice a day from postnatal day 7 to day 28.
(§3) Immunofluorescent staining. Hippocampal neurons were fixed with 4% paraformaldehyde in phosphate buffer (PB; pH 7.4) for 15 min. After washing with 1× phosphate buffer saline (PBS), cells were permeabilized with 0.05% Triton X-100 in 1×PBS for 15 min, and incubated with blocking buffer (3% BSA, 0.02% Triton X-100 in 1×PBS) for 15 min before being probed with primary antibodies. The following primary antibodies were used: anti-E6AP (1:1000), anti-phospho-p53 (1:250), anti-phospho-4EBP1 (1:1000), antiphospho-Mdm2 antibody (1:250), anti-phospho-p38 antibody (1:250), anti-RhoA antibody (1:1500). All primary antibodies were diluted in blocking buffer and incubated at 4° C. for 18 h. After six washes (6×10 min) with 1×PBS at room temperature, cells were incubated with secondary antibodies, Alexa488-anti-rabbit (1:500) or Alexa594-anti-mouse (1:500); both antibodies were diluted in blocking buffer and incubated at room temperature for one h. Cells were then washed with 1×PBS (6×10 min) and sealed with mounting medium (Vectashield; Vector Laboratories, Inc., Burlingame, Calif.) containing 49,69-diamidino-2-phenylindole (DAPI) to stain nuclei. Immunofluorescent signal was detected with a Nikon confocal microscope (Nikon TE 2000U with DEclipse C1 system; Melville, N.Y.).
(§4) Quantification of growth cone morphology and immunoreactivity. Confocal images were taken using the 60× oil-immersion objective. About 20-30 images were randomly selected from each culture dish (20 mm in diameter); at least four to six dishes from three to six independent culture preparations/experiments were used for each experimental group. Within an experiment, cultures used for different experimental groups and designed for comparison were stained simultaneously and imaged with the same acquisition parameters. Quantification was done blindly by multiple researchers. Growth cones with less than 1 filopodium were considered collapsed; 100 growth cones were-quantified for each experimental group. Image J software was used to quantify immunoreactivity intensity of p-p53 and RhoA in axons and growth cones; the “total integrated density” was used instead of “average intensity”. Briefly, individual growth cones were outlined manually and the total integrated density was measured using Image J software. For quantification of immunoreactivity in axons, a 50 μm fragment of axons from the neck of growth cones towards the cell body was selected and integrated density measured.

[2] = tested on: axons and growth cones of hippocampal neurons from wild-type mice; assay: Immunofluorescence quantification of protein levels in axons and growth cones of wild-type hippocampal neurons; type: cell-based; conditions: for RhoA levels in axons, percentage of control vehicle-treated neurons / RhoA levels in growth cones, percentage of control vehicle-treated neurons: immunohistochemical analysis, mean±SEM, n=25-40, Mdm2 inhibitor 1 μM
Description: as §1, §2, §3, §4

[3] = tested on: cortical neurons cultured from wild-type mice; assay: Immunoblotting analysis of various proteins in cultured cortical neurons (U18666A-induced changes); type: cell-based; conditions: for RhoA level (immunoblot) / Ubiquitin level (immunoblot) / p-4EBP1 level (immunoblot) / p-LIMK level (immunoblot) / p-Mdm2 level (immunoblot) / p-p38 level (immunoblot) / p-p53Δ level (immunoblot) / t-p38 level (immunoblot) / t-p53 level (immunoblot): DIV4 cortical neurons from wild-type mice, 5 μM U18666A, inhibitor pre-treatment 1 μM, DMSO = 100, n = 3-6
Description: as §1, §2
Immunoprecipitation and immunoblotting procedures. For immunoprecipitation, cultured cortical neurons were lysed in lysis buffer [0.05 M Tris base, 0.9% NaCl, pH 7.6, and 0.5% Triton X-100 plus Protease Inhibitors Cocktail (1:100; EMD Biosciences) and phosphatase inhibitor cocktails (1:500; Sigma)]. Lysates were centrifuged at 16,000×g for 30 min at 4° C. Supernatant were then cleared with a mixture of protein A/Gagarose beads (each 50%) for 1 h at 4 uC, and after a brief spin, pellets were discarded. A small portion of the supernatants was used as input. The reminder of the supernatant was immunoprecipitated overnight with control IgG or Tau1 antibodies. Immunoprecipitates were captured by incubation with protein A/G-agarose beads for 3 h at 4° C. After several washes, the beads were resuspended in 2×SDS sample buffer [4% sodium dodecyl sulfate (SDS), 100 mM Tris-HCl (pH 6.8), 10% b-mercaptoethanol, 20% glycerol and 0.2% bromophenol blue] and boiled for 10 min. The resulting proteins were separated by SDS-PAGE, and transferred to polyvinylidene difluoride membranes for immunoblotting using previously described protocols.
Because the p-p53Δ and p-p53 bands were very close in immunoblots and the former was the predominant band, p-p53Δ levels were used as an index of p-p53 degradation. Immunoprecipitation was used to determine whether p-p53 truncation affected its association with the microtubule-associated protein tau, a protein that is abundantly and exclusively expressed in axons. p53 labeled by either anti-p-p53 or anti-p53 antibodies was immunoprecipitated by Tau1 antibodies (FIG. 5B).
Increased levels of p-p53Δ and p-Mdm2 were quantified using the ImageJ program (National Institutes of Health, Bethesda, Md.). The quantified levels are contained in Table 1 below.

hippocampal neurons = assay: Filipin staining of cholesterol in cultured hippocampal neurons; type: cell-based, mice; conditions: 1 μM U18666A for 18 h
Description: Filipin staining. […] After immunostaining with anti-E6-AP and anti-p-p53 antibodies and corresponding secondary antibodies conjugated with either Alexa Fluor H 594 or Alexa Fluor H 488, neurons were washed with 1×PBS and incubated in the dark with […] filipin in 1×PBS for 2 h at room temperature. Neuronal cultures were then washed again with 1×PBS before being examined with confocal microscopy.
Because axonal growth cone collapse in hippocampal neurons from npc1−/− mice was associated with decreased levels of p-p53, over-expression of wild-type p53 was tested to determine if it could reverse growth cone collapse. In this set of experiments, the amphiphilic amine and cholesterol transport inhibitor, U18666A, was used to induce a NPC-like phenotype in hippocampal neurons cultured from wild-type mice. U18666A has been used to induce NPC-like phenotype in various cultured cells, including neurons. Treatment with 1 μM U18666A for 18 h induced growth cone collapse in about 80% of hippocampal neurons prepared from wild-type mice and transfected with an EGFP-vector or a vector containing p53 with the R175H mutation (p53-R175H), a conformational mutation that is frequently found in tumor cells that lack p53 function (FIGS. 1D and E). […]

npc1−/− mice = assay: In vivo ROCK inhibition in developing npc1−/− mice, immunohistochemistry of brain sections; conditions: 10 mg/kg subcutaneously twice a day, postnatal day 7 to 28
Description: Animals. A breeding colony of Npc1″ heterozygous mice that were on a BALB/c background (Jackson Laboratory, Bar Harbor, Me.) was established in order breed wild type (npc+/+) and npc1−/− mice. The genotype of the mice was determined by employing a polymerase chain reaction (PCR)-based method as described in reference. The Institutional Animal Care and Use Committee (IACUC) of Western University of Health Sciences approved the care and experimental protocols that these examples describe. The National Institutes of Health Guide for the Care and Use of Laboratory Animals and Animal Husbandry governed the use of animals by the inventors.
as §2
Perfusion and Immunohistochemistry. Mice were perfused with freshly prepared 4% paraformaldehyde in 1×PBS. Brains were then removed and post-fixed in 4% paraformaldehyde for 16 h followed by incubation with graded sucrose solutions. Brains were sectioned into 30 μm coronal sections with a microtome. Floating sections were processed for immunostaining as described previously. Briefly, sections were incubated with rabbit anti-p-p53 (1:250) and mouse anti-pan axonal neurofilament (SMI-312, 1:500; Covance) antibodies in 5% horse serum diluted in 0.1M PB overnight at 4° C. […] Quantification of p-p53 and neurofilament immunoreactivity in fasciculated bundles in the striatum was performed by using NIH ImageJ software. […] Analyzed area consisted of 450 μm×420 μm that was taken from two sections per mouse; three different mice were used for each experimental group. Means of integrated density and areas were quantified and expressed as percentage of values from npc1+/+ mice.

[4] = reference [26]; cited from earlier work
[5] = 1 μM SB203580 pre-treatment, immunohistochemistry
[6] = wild-type cortical neurons treated with pifithrin-μ

## Cc1cncc2cccc(S(=O)(=O)N3CCCNC[C@@H]3C)c12.Cl.Cl [H 1152, (S)-(+)-2-Methyl-1-[(4-methyl-5-isoquinolinyl)sulfonyl]-hexahydro-1H-1,4-diazepine dihydrochloride]
[1]; pre-treatment with 100 nM H 1152 for 3 h, then 5 μM U18666A for 2 min
  effect on U18666A-induced growth cone collapse: blocked
[2]; 100 nM H 1152 for 3 h, then 5 μM U18666A 2 min
  effect on U18666A-induced decrease in p-p53 immunoreactivity: blocked

## Bc1ccc(C(=O)/C=C/c2ccc(I)cc2)cc1 [Mdm2-In, trans-4-Iodo, 49-boranyl-chalcone]
[3]
  RhoA level (immunoblot): 105 ± 1
  Ubiquitin level (immunoblot): 102 ± 5
  p-4EBP1 level (immunoblot): 104 ± 2
  p-LIMK level (immunoblot): 117 ± 6
  p-Mdm2 level (immunoblot): 100 ± 4
  p-p38 level (immunoblot): 108 ± 17
  p-p53Δ level (immunoblot): 106 ± 2
  t-p38 level (immunoblot): 104 ± 0
  t-p53 level (immunoblot): 104 ± 1
[1]; pretreatment with 1 μM Mdm2-in, n=100 growth cones
  effect on U18666A-induced growth cone collapse: significantly reduced
[2]; Mdm2 inhibitor pre-treatment (1 μM), n=25-40 neurons
  effect on U18666A-induced decrease in p-p53 levels in axons and growth cones: significantly reduced
[2]
  RhoA levels in axons, percentage of control vehicle-treated neurons: 102±15%
  RhoA levels in growth cones, percentage of control vehicle-treated neurons: 136±20%

## C[S+]([O-])c1ccc(-c2nc(-c3ccncc3)c(-c3ccc(F)cc3)[nH]2)cc1 (stereo not shown) [SB203580]
[3]
  RhoA level (immunoblot): 96 ± 0
  Ubiquitin level (immunoblot): 95 ± 7
  p-4EBP1 level (immunoblot): 99 ± 3
  p-LIMK level (immunoblot): 100 ± 3
  p-Mdm2 level (immunoblot): 92 ± 1
  p-p38 level (immunoblot): 96 ± 24
  p-p53Δ level (immunoblot): 94 ± 6
  t-p38 level (immunoblot): 99 ± 5
  t-p53 level (immunoblot): 107 ± 2
[1]; preincubation with 1 μM SB203580 for 2 h before U18666A
  effect on U18666A-induced growth cone collapse: significantly reduced
[2]; [5]
  effect on U18666A-induced RhoA increase in axons and growth cones: blocking effects
  effect on U18666A-induced p-p53 truncation in axons and growth cones: blocking effects

## CCN(CC)CCO[C@H]1CC[C@@]2(C)C(=CC[C@@H]3[C@@H]2CC[C@]2(C)C(=O)CC[C@@H]32)C1 [U18666A]
[3]; 5 μM U18666A for 2 min, DIV4 wild-type cortical neurons
  p-p53 levels (immunoblot): rapid decrease
[3]
  RhoA level (immunoblot): 418
  Ubiquitin level (immunoblot): 435
  p-4EBP1 level (immunoblot): 389
  p-LIMK level (immunoblot): 411
  p-Mdm2 level (immunoblot): 549
  p-p38 level (immunoblot): 493
  p-p53Δ level (immunoblot): 775
  t-p38 level (immunoblot): 107
  t-p53 level (immunoblot): 94
[1]; neurons transfected with EGFP-vector or p53-R175H
  growth cone collapse (share of neurons): about 80%
[1]; neurons transfected with wild-type p53
  growth cone collapse (share of neurons): 20%
[1]; 5 μM U18666A for 2 min, DIV4, no inhibitor, n=100 growth cones
  growth cone collapse: 72±2%
[2]; 5 μM U18666A for 2 min, DIV4
  levels of "mutant" p53 in axons and growth cones: markedly reduced
[2]; 5 μM U18666A for two min
  p-4EBP1 levels in axons and growth cones: increased
[2]; 5 μM U18666A for two min vs vehicle-treated controls
  levels of p-p38 and p-Mdm2 in axons and growth cones: increased
[2]
  RhoA levels in axons, percentage of control vehicle-treated neurons: 640±56%
  RhoA levels in growth cones, percentage of control vehicle-treated neurons: 257±37%
Hippocampal neurons
  filipin fluorescence intensity (cholesterol) in axons and collapsed growth cones: marked decrease

## CC[C@H]1CN2CCc3cc(OC)c(OC)cc3[C@@H]2C[C@@H]1C[C@H]1NCCc2cc(OC)c(OC)cc21 [emetine]
[3]; emetine pretreatment
  effect on U18666A-induced phosphorylation of LIMK: significantly reduced
  effect on pifithrin-μ-induced increase in RhoA and p-LIMK: blocked
[3]; emetine treatment
  effect on U18666A-induced changes in levels of p-Mdm2, p-p38 and p-p53Δ: did not affect
[3]; pre-treatment with emetine
  effect on U18666A-induced increase in RhoA levels: significantly reduced
[1]; emetine pretreatment, FIG. 15C legend: cortical neurons, n=100 growth cones
  effect on U18666A-induced growth cone collapse: significantly reduced

## O=c1[nH]ccc2c(S(=O)(=O)N3CCCNCC3)cccc12 [hydroxyfasudil monohydrochloride]
npc1−/− mice
  SMI-312-immunopositive areas: significantly increased
  number of axonal neurofilaments (SMI-312 staining), especially corpus callosum and striatum: increased
  p-p53 immunoreactivity in brain sections: increased
[4]
  blood-brain-barrier crossing: cross the blood-brain-barrier
  ischemia-induced brain damage: reduce ischemia-induced brain damage

## NS(=O)(=O)C#Cc1ccccc1 [pifithrin-μ]
[3]; [6]
  levels of RhoA and p-LIMK (immunoblot): rapid increase
  levels of p-4EBP1: increased
